{"source": "the supplement of paper PMC10307832", "test_in_all_cases": "relative viability (nuclei count vs DMSO), 5 days (fraction); higher = more cells survive", "key": {"LXF-289": {"system": "LXF-289", "in_short": "(§1)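 Relative viability equals treated-well nuclei counts divided by vehicle-well nuclei counts. Counts came from 4× images of lung cancer cell lines grown in 1536-well plates for 5 days after pin-tool dosing on the day after seeding. Dosing used one drug alone or a fixed anchor-drug dose plus five library-drug doses (not always all listed) in √10 steps, and values are medians of duplicate plates.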"}, "RERF-LC-KJ": {"system": "RERF-LC-KJ", "in_short": "as §1"}, "NCI-H1792": {"system": "NCI-H1792", "in_short": "as §1"}, "LCLC-103H": {"system": "LCLC-103H", "in_short": "as §1"}, "NCI-H1563": {"system": "NCI-H1563", "in_short": "as §1"}, "NCI-H2347": {"system": "NCI-H2347", "in_short": "as §1"}, "NCI-H1355": {"system": "NCI-H1355", "in_short": "as §1"}, "NCI-H1755": {"system": "NCI-H1755", "in_short": "as §1"}, "NCI-H596": {"system": "NCI-H596", "in_short": "as §1"}, "NCI-H727": {"system": "NCI-H727", "in_short": "as §1"}, "NCI-H1651": {"system": "NCI-H1651", "in_short": "as §1"}, "NCI-H650": {"system": "NCI-H650", "in_short": "as §1"}, "NCI-H1915": {"system": "NCI-H1915", "in_short": "as §1"}, "NCI-H460": {"system": "NCI-H460", "in_short": "as §1"}, "NCI-H322M": {"system": "NCI-H322M", "in_short": "as §1"}, "NCI-H3122": {"system": "NCI-H3122", "in_short": "as §1"}, "NCI-H520": {"system": "NCI-H520", "in_short": "as §1"}, "NCI-H441": {"system": "NCI-H441", "in_short": "as §1"}, "PC-14": {"system": "PC-14", "in_short": "as §1"}, "NCI-H661": {"system": "NCI-H661", "in_short": "as §1"}}, "data": [{"smiles": "COc1cc(N2CCC(C(N)=O)CC2)ccc1Nc1nc(N)c(Cl)c(Nc2ccccc2S(=O)(=O)C(C)C)n1", "note": "[HG-5-88-01] + CC(C)C[C@H](NC(=O)[C@H](Cc1ccccc1)NC(=O)c1cnccn1)B(O)O [Bortezomib] (partner 0.002 µM)", "values": [{"measurement": "relative viability", "setting": "LXF-289; first compound 0.04 µM", "value": 1.04}, {"measurement": "relative viability", "setting": "LXF-289; first compound 0.1265 µM", "value": 0.994}, {"measurement": "relative viability", "setting": "LXF-289; first compound 0.4 µM", "value": 0.909}, {"measurement": "relative viability", "setting": "LXF-289; first compound 1.265 µM", "value": 1.05}, {"measurement": "relative viability", "setting": "LXF-289; first compound 4 µM", "value": 0.981}, {"measurement": "relative viability", "setting": "RERF-LC-KJ; first compound 0.04 µM", "value": 1.23}, {"measurement": "relative viability", "setting": "RERF-LC-KJ; first compound 0.1265 µM", "value": 1.19}, {"measurement": "relative viability", "setting": "RERF-LC-KJ; first compound 0.4 µM", "value": 1.08}, {"measurement": "relative viability", "setting": "RERF-LC-KJ; first compound 1.265 µM", "value": 0.992}, {"measurement": "relative viability", "setting": "RERF-LC-KJ; first compound 4 µM", "value": 0.639}, {"measurement": "relative viability", "setting": "NCI-H1792; first compound 0.04 µM", "value": 0.975}, {"measurement": "relative viability", "setting": "NCI-H1792; first compound 0.1265 µM", "value": 0.929}, {"measurement": "relative viability", "setting": "NCI-H1792; first compound 0.4 µM", "value": 0.941}, {"measurement": "relative viability", "setting": "NCI-H1792; first compound 1.265 µM", "value": 0.817}, {"measurement": "relative viability", "setting": "NCI-H1792; first compound 4 µM", "value": 0.958}, {"measurement": "relative viability", "setting": "LCLC-103H; first compound 0.04 µM", "value": 1.02}, {"measurement": "relative viability", "setting": "LCLC-103H; first compound 0.1265 µM", "value": 0.995}, {"measurement": "relative viability", "setting": "LCLC-103H; first compound 0.4 µM", "value": 0.913}, {"measurement": "relative viability", "setting": "LCLC-103H; first compound 1.265 µM", "value": 1.01}, {"measurement": "relative viability", "setting": "LCLC-103H; first compound 4 µM", "value": 1.01}, {"measurement": "relative viability", "setting": "NCI-H1563; first compound 0.04 µM", "value": 0.827}, {"measurement": "relative viability", "setting": "NCI-H1563; first compound 0.1265 µM", "value": 0.92}, {"measurement": "relative viability", "setting": "NCI-H1563; first compound 0.4 µM", "value": 0.925}, {"measurement": "relative viability", "setting": "NCI-H1563; first compound 1.265 µM", "value": 0.765}, {"measurement": "relative viability", "setting": "NCI-H1563; first compound 4 µM", "value": 0.855}, {"measurement": "relative viability", "setting": "NCI-H2347; first compound 0.04 µM", "value": 0.954}, {"measurement": "relative viability", "setting": "NCI-H2347; first compound 0.1265 µM", "value": 0.873}, {"measurement": "relative viability", "setting": "NCI-H2347; first compound 0.4 µM", "value": 1.01}, {"measurement": "relative viability", "setting": "NCI-H2347; first compound 1.265 µM", "value": 1.16}, {"measurement": "relative viability", "setting": "NCI-H2347; first compound 4 µM", "value": 0.897}, {"measurement": "relative viability", "setting": "NCI-H1355; first compound 0.04 µM", "value": 1.37}, {"measurement": "relative viability", "setting": "NCI-H1355; first compound 0.1265 µM", "value": 1.37}, {"measurement": "relative viability", "setting": "NCI-H1355; first compound 0.4 µM", "value": 1.21}, {"measurement": "relative viability", "setting": "NCI-H1355; first compound 1.265 µM", "value": 1.14}, {"measurement": "relative viability", "setting": "NCI-H1355; first compound 4 µM", "value": 0.96}, {"measurement": "relative viability", "setting": "NCI-H1755; first compound 0.1265 µM", "value": 0.911}, {"measurement": "relative viability", "setting": "NCI-H1755; first compound 0.4 µM", "value": 0.885}, {"measurement": "relative viability", "setting": "NCI-H1755; first compound 1.265 µM", "value": 0.92}, {"measurement": "relative viability", "setting": "NCI-H1755; first compound 4 µM", "value": 0.975}, {"measurement": "relative viability", "setting": "NCI-H596; first compound 0.04 µM", "value": 1.25}, {"measurement": "relative viability", "setting": "NCI-H596; first compound 0.1265 µM", "value": 0.948}, {"measurement": "relative viability", "setting": "NCI-H596; first compound 0.4 µM", "value": 1}, {"measurement": "relative viability", "setting": "NCI-H596; first compound 1.265 µM", "value": 0.964}, {"measurement": "relative viability", "setting": "NCI-H596; first compound 4 µM", "value": 1.02}, {"measurement": "relative viability", "setting": "NCI-H727; first compound 0.04 µM", "value": 0.689}, {"measurement": "relative viability", "setting": "NCI-H727; first compound 0.1265 µM", "value": 0.924}, {"measurement": "relative viability", "setting": "NCI-H727; first compound 0.4 µM", "value": 0.769}, {"measurement": "relative viability", "setting": "NCI-H727; first compound 1.265 µM", "value": 0.643}, {"measurement": "relative viability", "setting": "NCI-H727; first compound 4 µM", "value": 0.388}, {"measurement": "relative viability", "setting": "NCI-H1651; first compound 0.04 µM", "value": 0.844}, {"measurement": "relative viability", "setting": "NCI-H1651; first compound 0.1265 µM", "value": 0.935}, {"measurement": "relative viability", "setting": "NCI-H1651; first compound 0.4 µM", "value": 0.941}, {"measurement": "relative viability", "setting": "NCI-H1651; first compound 1.265 µM", "value": 0.976}, {"measurement": "relative viability", "setting": "NCI-H1651; first compound 4 µM", "value": 1.03}, {"measurement": "relative viability", "setting": "NCI-H650; first compound 0.04 µM", "value": 0.844}, {"measurement": "relative viability", "setting": "NCI-H650; first compound 0.1265 µM", "value": 0.767}, {"measurement": "relative viability", "setting": "NCI-H650; first compound 0.4 µM", "value": 0.711}, {"measurement": "relative viability", "setting": "NCI-H650; first compound 1.265 µM", "value": 0.815}, {"measurement": "relative viability", "setting": "NCI-H650; first compound 4 µM", "value": 0.381}, {"measurement": "relative viability", "setting": "NCI-H1915; first compound 0.04 µM", "value": 0.977}, {"measurement": "relative viability", "setting": "NCI-H1915; first compound 0.1265 µM", "value": 0.941}, {"measurement": "relative viability", "setting": "NCI-H1915; first compound 0.4 µM", "value": 0.941}, {"measurement": "relative viability", "setting": "NCI-H1915; first compound 1.265 µM", "value": 0.974}, {"measurement": "relative viability", "setting": "NCI-H1915; first compound 4 µM", "value": 0.621}, {"measurement": "relative viability", "setting": "NCI-H460; first compound 0.04 µM", "value": 0.955}, {"measurement": "relative viability", "setting": "NCI-H460; first compound 0.1265 µM", "value": 1.17}, {"measurement": "relative viability", "setting": "NCI-H460; first compound 0.4 µM", "value": 1.09}, {"measurement": "relative viability", "setting": "NCI-H460; first compound 1.265 µM", "value": 1.04}, {"measurement": "relative viability", "setting": "NCI-H460; first compound 4 µM", "value": 1.28}, {"measurement": "relative viability", "setting": "NCI-H322M; first compound 0.04 µM", "value": 1.22}, {"measurement": "relative viability", "setting": "NCI-H322M; first compound 0.1265 µM", "value": 1.04}, {"measurement": "relative viability", "setting": "NCI-H322M; first compound 0.4 µM", "value": 1.38}, {"measurement": "relative viability", "setting": "NCI-H322M; first compound 1.265 µM", "value": 1.23}, {"measurement": "relative viability", "setting": "NCI-H322M; first compound 4 µM", "value": 1.08}, {"measurement": "relative viability", "setting": "NCI-H3122; first compound 0.04 µM", "value": 0.894}, {"measurement": "relative viability", "setting": "NCI-H3122; first compound 0.1265 µM", "value": 0.647}, {"measurement": "relative viability", "setting": "NCI-H3122; first compound 0.4 µM", "value": 0.335}, {"measurement": "relative viability", "setting": "NCI-H3122; first compound 1.265 µM", "value": 0.296}, {"measurement": "relative viability", "setting": "NCI-H3122; first compound 4 µM", "value": 0.216}, {"measurement": "relative viability", "setting": "NCI-H520; first compound 0.04 µM", "value": 0.45}, {"measurement": "relative viability", "setting": "NCI-H520; first compound 0.1265 µM", "value": 0.633}, {"measurement": "relative viability", "setting": "NCI-H520; first compound 0.4 µM", "value": 0.304}, {"measurement": "relative viability", "setting": "NCI-H520; first compound 1.265 µM", "value": 0.698}, {"measurement": "relative viability", "setting": "NCI-H520; first compound 4 µM", "value": 0.546}, {"measurement": "relative viability", "setting": "NCI-H441; first compound 0.04 µM", "value": 0.579}, {"measurement": "relative viability", "setting": "NCI-H441; first compound 0.1265 µM", "value": 0.423}, {"measurement": "relative viability", "setting": "NCI-H441; first compound 0.4 µM", "value": 0.622}, {"measurement": "relative viability", "setting": "NCI-H441; first compound 1.265 µM", "value": 0.558}, {"measurement": "relative viability", "setting": "NCI-H441; first compound 4 µM", "value": 0.379}, {"measurement": "relative viability", "setting": "PC-14; first compound 0.04 µM", "value": 0.837}, {"measurement": "relative viability", "setting": "PC-14; first compound 0.1265 µM", "value": 0.969}, {"measurement": "relative viability", "setting": "PC-14; first compound 0.4 µM", "value": 0.864}, {"measurement": "relative viability", "setting": "PC-14; first compound 1.265 µM", "value": 0.883}, {"measurement": "relative viability", "setting": "PC-14; first compound 4 µM", "value": 0.316}, {"measurement": "relative viability", "setting": "NCI-H661; first compound 0.04 µM", "value": 0.838}, {"measurement": "relative viability", "setting": "NCI-H661; first compound 0.1265 µM", "value": 0.878}, {"measurement": "relative viability", "setting": "NCI-H661; first compound 0.4 µM", "value": 0.726}, {"measurement": "relative viability", "setting": "NCI-H661; first compound 4 µM", "value": 0.894}]}]}
